pIC50: −log10 of the molar value.
What was measured:
[1] = test system: LS-174T cells (human colon adenocarcinoma cell line); assay: Bionas chip-based system, respiration rate; assay type: cell-based; conditions: 24 h peptide exposure
Experimental: (§1) Cytotoxicity was assayed by using the chip-based Bionas system with four different cell types. These include human hepatoma cells (HepG2), human colon adenocarcinoma cells (LS-174T), human acute lymphocytic leukemic cells (Jurkat), and human peripheral blood mononuclear cells (hPBMC), provided by Cell Line Services (Piscataway, NJ, USA) and ProBioGen (Berlin, Germany). The cells were seeded on chips, with a density of 200,000 cells/chip for HepG2 and LS-174T, 300,000 cells/chip for Jurkat, and 2 million cells/chip for PBMC.
(§2) A metabolic investigation with four cells and cell lines on the effect of Pep19-2.5 on selected cell parameters was performed. In detail, see Table 1.
(§3) The analysis was performed in the Bionas® 2500 analyzing system by seeding the cells on the chips, with cell numbers of 200,000 for HepG2 cells and LS-174T cells, and 300,000 for Jurkat cells. The suspended cells were embedded on the day of the experiment in agarose and immediately put into the Bionas® 2500 analyzing system. The settling phase (‘RM’) was 5 h. The peptides were added after 5 h for 24 h, then a regeneration phase followed for 4 h (‘RM’), and in the last phase the cells were lysed with 0.2% triton in fresh medium (‘TX’). For the parameters acidification, respiration, and adhesion (impedance), the mean values from two experiments were calculated. […]

[2] = test system: human PBMC cells; assay: Bionas chip-based system, respiration rate; assay type: cell-based; conditions: 24 h peptide exposure
Experimental: as §1, §2, §3

[3] = target: T1, hERG ion channel (gene ID 3757) (Homo sapiens, UniProt Q12809); assay: Automated planar patch clamp (QPatch), hERG in CHO cells; assay type: cell-based; conditions: for relative remaining hERG current: QPatch
T1 construct: expressed in transfected cells
Experimental: For automated patch clamp experiments, QPatch, a planar patch clamp robot, was used. QPatch experiments were performed as previously described. […] Patch clamp experiments were performed in the whole-cell voltage clamp mode on a planar patch clamp chip. Successfully clamped cells were stimulated with the following stimulation protocol: From a holding potential of −80 mV, the cells were partially depolarized to −50 mV to test the leak current at this potential where hERG channels are closed. This was followed by a depolarization to +40 mV. At this depolarized potential, the hERG channels alternate between the open and inactivated states. After partially repolarizing to −50 mV, the inactivated subpopulation of hERG channels rapidly recovers from inactivation and switches into the open state, from where the channels slowly close.
Aspidasept (Pep19-2.5) was applied at nominal concentrations of 1 µg/mL, 10 µg/mL, and 100 µg/mL, and remaining hERG mediated potassium channel currents normalized to initial currents were calculated.

[4] = test system: local lymph node; assay: Local lymph node assay (LLNA), skin sensitization; assay type: in vivo, mouse
Experimental: • Application of substance on external surface of each ear (25 µL/ear) for 3 consecutive days • On day 6, intravenous injection of tritiated methyl thymidine (^3HTdR) in tail vein, and after about 6 h, sacrification and preparation of lymph node cell • Cell proliferation in lymph node measured by incorporation of ^3HTdR

[5] = Maximum attainable test concentration based on solubility; assay type: physicochemical; conditions: in aqueous 1% Pluronic PE9200
[6] = test system: male and female Wistar rats; assay: 14-day repeated dose toxicology, continuous intravenous infusion; assay type: in vivo, rat
Experimental: Continuous intravenous infusion was performed over 14 days with 0.5 mg/kg, 3.2 mg/kg, and 20.0 mg/kg Pep19-2.5 and compared to the vehicle in male and female Wistar rats. Groups comprised 10 animals per gender, with an additional 5 animals per gender for recovery animals in the vehicle and high dose groups. The details of the 14-day repeated dose toxicity study will be published elsewhere.
Continuous intravenous infusion was performed over 14 days with 0.5 mg/kg, 3.2 mg/kg and 20.0 mg/kg Pep19-2.5 and compared to the vehicle in male and female Wistar rats. Groups comprised 10 animals per gender, with an additional 5 animals per gender for recovery animals in the vehicle and high dose groups. Based on the parameters determined, the following results were found: […]

[7] = test system: male Wistar rats; assay: Modified Irwin test (neurobehavioral activity)
Experimental: In this test, an examination is done whether or not drugs induce behavioural and physiologically relevant effects. […] The modified Irwin test was performed under GLP conditions and was comprised of a standard observation battery of tests addressing various parameters of the central nervous, autonomic nervous, peripheral motor, and sensory systems.
The study comprised five treatment groups with six male animals each.
The following investigations were made at the following time points: • Mortality: twice daily during the observation period • Clinical observations: on the day of treatment before application • Body weight development: on the day of delivery and on the day of treatment before application • Modified Irwin test: at the time points pre-test (24 h prior to administration), 1 h, 4 h, 7 h, 24 h, 48 h, and 72 h after application.
Statistical analyses of the data were performed for each group separately. Group mean values (means) with standard deviation (SD) were calculated for body weights, each parameter of the Irwin Test, and each investigation time point.
For Irwin Test parameters, statistical differences between the positive control group and the vehicle control group and between the test item groups and the vehicle control group were evaluated by the Mann–Whitney U-test, using an MS Excel® statistics tool developed and validated in-house; p < 0.05 was accepted as the level of significance.

T1 sequence (Q12809 whole entry): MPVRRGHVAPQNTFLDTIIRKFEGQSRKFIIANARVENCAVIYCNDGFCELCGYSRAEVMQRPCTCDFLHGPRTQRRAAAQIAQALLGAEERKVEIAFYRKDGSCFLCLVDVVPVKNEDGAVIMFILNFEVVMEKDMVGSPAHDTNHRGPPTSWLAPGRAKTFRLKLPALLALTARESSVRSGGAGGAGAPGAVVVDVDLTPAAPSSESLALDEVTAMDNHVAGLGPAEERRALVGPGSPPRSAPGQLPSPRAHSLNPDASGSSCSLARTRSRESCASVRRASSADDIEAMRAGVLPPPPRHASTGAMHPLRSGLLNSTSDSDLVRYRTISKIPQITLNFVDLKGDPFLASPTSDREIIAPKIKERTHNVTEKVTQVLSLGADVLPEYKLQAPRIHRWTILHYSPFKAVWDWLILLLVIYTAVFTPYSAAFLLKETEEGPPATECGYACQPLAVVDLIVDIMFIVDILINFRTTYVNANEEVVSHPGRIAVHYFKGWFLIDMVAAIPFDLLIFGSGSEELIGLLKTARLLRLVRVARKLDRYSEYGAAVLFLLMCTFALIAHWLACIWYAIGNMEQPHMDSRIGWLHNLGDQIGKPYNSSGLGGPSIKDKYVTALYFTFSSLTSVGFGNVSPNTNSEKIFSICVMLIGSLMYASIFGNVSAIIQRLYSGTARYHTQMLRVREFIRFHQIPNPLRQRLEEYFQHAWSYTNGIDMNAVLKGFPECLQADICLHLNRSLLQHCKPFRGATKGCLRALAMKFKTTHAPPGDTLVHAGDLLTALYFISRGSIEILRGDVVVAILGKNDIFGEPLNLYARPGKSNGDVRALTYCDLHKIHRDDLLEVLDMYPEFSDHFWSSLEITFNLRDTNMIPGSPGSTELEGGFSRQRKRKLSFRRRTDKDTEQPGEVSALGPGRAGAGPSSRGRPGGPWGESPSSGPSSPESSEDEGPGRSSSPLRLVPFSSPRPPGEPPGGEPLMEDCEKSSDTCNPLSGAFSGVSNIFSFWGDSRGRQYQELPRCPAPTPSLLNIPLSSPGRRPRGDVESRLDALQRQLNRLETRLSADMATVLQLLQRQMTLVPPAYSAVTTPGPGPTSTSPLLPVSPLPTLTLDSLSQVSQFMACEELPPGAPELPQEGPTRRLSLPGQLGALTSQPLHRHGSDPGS

In the case of `N=C(N)NCCC[C@H](NC(=O)[C@H](Cc1ccc(O)cc1)NC(=O)[C@H](CCCCN)NC(=O)[C@H](CCCCN)NC(=O)[C@H](CS)NC(=O)CN)C(=O)N[C@@H](CCCNC(=N)N)C(=O)N[C@@H](Cc1ccccc1)C(=O)N[C@@H](CCCNC(=N)N)C(=O)N[C@@H](Cc1c[nH]c2ccccc12)C(=O)N[C@@H](CCCCN)C(=O)N[C@@H](Cc1ccccc1)C(=O)N[C@@H](CCCCN)C(=O)NCC(=O)N[C@@H](CCCCN)C(=O)N[C@@H](Cc1ccccc1)C(=O)N[C@@H](Cc1c[nH]c2ccccc12)C(=O)N[C@@H](Cc1ccccc1)C(=O)N[C@@H](Cc1c[nH]c2ccccc12)C(=O)NCC(N)=O` [Pep19-2.5], the “concentration above which toxic effects are observed (respiration rate)” value [1] was “above 20 μg/mL”, the “concentration above which respiration rate increased significantly” value [2] was “above 50 μg/mL” and the “Rel. Rem. Current ± SD (QPatch)” value ([3]; 1 µg/mL, fraction) was 0.97 ± 0.02. The “Rel. Rem. Current (QPatch, 20 min Application)” value ([3]; 10 µg/mL, fraction) was 0.92, the “Rel. Rem. Current ± SD (QPatch)” value ([3]; 10 µg/mL, fraction) was 0.95 ± 0.02 and the “relative remaining hERG current” value ([3]; 1 µg/mL (Aspidasept n = 4; Pep19-4LF n = 3)) was 97.2 ± 2.2%. For the same compound, the “relative remaining hERG current” value ([3]; 10 µg/mL (Aspidasept n = 4; Pep19-4LF n = 1)) was 95.2 ± 2.5%, the “relative remaining hERG current” value ([3]; 10 µg/mL applied for up to 20 min) was 92.2% and the pIC50 ([3]; estimated, no significant effect at highest concentration tested (10 µg/mL), read-out: hypothetical IC50 on hERG-mediated potassium current) was < 5.43. The skin sensitization potential ([4]; 5%, 2.5%, 1% and 0.5% (w/v) in 1% Pluronic aqueous solution, 25 µL/ear, 3 consecutive days, 3HTdR incorporation) was “no skin sensitization potential”, the preliminary irritation/toxicity test ([4]; up to 5% (w/v) in aqueous 1% Pluronic) was “no adverse effect” and the “maximum attainable test concentration based on solubility” value [5] was 5 % (w/v). The injection site findings ([6]; 20 mg/kg dose group) was “local irritating effect”, the body weight gain ([6]; all dose groups) was “No statistically significant effect” and the “ophthalmology, clinical chemistry, urine, organ weights” value ([6]; all dose groups) was “not affected”. It also gave an aPTT ([6]; female Wistar rats, 0.5 mg/kg/day, n = 10) of 19.9 ± 2.2 s, a PT ([6]; female, 0.5 mg/kg/day, n = 10) of 20.3 ± 2.5 s and a TT ([6]; female, 0.5 mg/kg/day, n = 10) of 25.7 ± 1.0 s. For the same compound, the TT ([6]; female, 3.2 mg/kg/day, n = 10) was 25.4 ± 1.0 s, the TT ([6]; female, 20.0 mg/kg/day, n = 10) was 25.8 ± 0.7 s and the mortality ([6]; high dose group 20 mg/kg) was “One male of the high dose group died”. For the same compound, the reticulocytes ([6]; high dose group, both genders, complete recovery) was “slightly reduced”, the behavioural findings ([6]; high dose group, single animals) was “test item-related behavioural findings (increased activity, muscle tremor, increased incidence of animals showing signs of discomfort, such as chromorhinorrhea or piloerection)” and the aPTT ([6]; male Wistar rats, 0.5 mg/kg/day, end of infusion, mean ± SD, n = 9) was 19.9 ± 1.7 s. The TT ([6]; male, 0,5 mg/kg/day, n = 9) was 25.3 ± 1.0 s, the PT ([6]; male, 0.5 mg/kg/day, n = 9) was 20.0 ± 1.1 s and the PT ([6]; male, 3.2 mg/kg/day, n = 10) was 21.5 ± 1.3 s. For the same compound, the TT ([6]; male, 3.2 mg/kg/day, n = 10) was 25.0 ± 0.9 s, the aPTT ([6]; male, 3.2 mg/kg/day, n = 10) was 18.6 ± 1.8 s and the TT ([6]; male, 20.0 mg/kg/day, n = 7) was 25.0 ± 0.8 s. The PT ([6]; male, n = 7, printed 0.5 mg/kg/day) was 20.9 ± 1.3 s, the histopathological systemic toxicity ([6]; rat, in vivo) was “absence of any histopathological systemic toxicity” and the “spontaneous locomotor activity, median score” value (shortened to “spontaneous locomotor activity”) ([7]; 0.02 mg/kg b.w., 1 h, negative control 0.0, not significant) was −0.5. The “positional passivity, median score” value ([7]; 0.02 mg/kg, 1 h, saline 1.0, p < 0.05) was 0.0, the “hind limb tone, median score” value ([7]; 0.02 mg/kg, 72 h, negative control 1.0) was 2.0 and the “spontaneous locomotor activity” value ([7]; 0.2 mg/kg b.w., 48 and 72 h, saline −1.0, p < 0.05 at 72 h) was 0.5. The “spontaneous locomotor activity” value ([7]; 0.2 mg/kg b.w., 1 h, negative control 0.0, not significant) was −1.0, the “head touch, median score” value ([7]; 0.2 mg/kg, 7 h, saline −1.0, p < 0.01) was 0.0 and the “rearing, median score” value ([7]; 0.2 mg/kg, 48 h, saline −1.0, p < 0.05) was 1.0. For the same compound, the “finger approach, median score” value ([7]; 0.2 mg/kg, 72 h, saline 0.0, p < 0.05) was 2.0, the “rearing, median score” value ([7]; 0.2 mg/kg, 72 h, saline −1.0, p < 0.01) was 1.0 and the “spontaneous locomotor activity” value ([7]; 2 mg/kg b.w., 1 h, negative control 0.0, not significant) was −1.0. The “effect in Irwin test” value ([7]; high dose 2 mg/kg single i.v.) was “Significant differences were also observed in the high dose group (2 mg/kg), in terms of sensitivity to pinching the tail and vocalization when touched and hind limb reflex”, the “vocalization when touched, median score” value ([7]; high dose 2 mg/kg, 1 and 24 h, control 0.0, p < 0.05) was 1.0 and the “sensitivity to pinching of the tail, median score” value (“sensitivity to pinching” for short) ([7]; high dose 2 mg/kg, 1 h, negative control 0.0, p < 0.01) was −1.5. The “sensitivity to pinching” value ([7]; high dose 2 mg/kg, 7 h, saline 0.0, p < 0.05) was −1.5, the “effect in Irwin test” value ([7]; low dose 0.02 mg/kg single i.v.) was “No effect” and the “sensitivity to pinching” value ([7]; low dose 0.02 mg/kg, 1 h) was 0.0. For the same compound, the “effect in Irwin test” value ([7]; mid dose 0.2 mg/kg single i.v.) was “significant differences to the negative control were noted in rearing, spontaneous locomotor activity and sensitivity to pinching the tail”, the “sensitivity to pinching” value ([7]; mid dose 0.2 mg/kg, 1 h) was −1.5 and the neurobehavioral effects overall ([7]; single i.v., 0.02, 0.2 and 2 mg/kg) was “No relevant neurobehavioral effects”.

Reference: paper PMC9782211 (Microorganisms, 2022)
